In patent publication US10952992B2, “Methods of treating intraocular pressure with activators of Tie-2” (Aerpio Pharmaceuticals, Inc., priority 2015, dated 2021):
“And” between values parts separate entries of the source, which are not always exact repeats. Equal values may be shown once. Where a name gives a salt, the structure may show the parent alone.

Assay: Example 2 iris, retina, choroid and cornea tissue concentrations
Assay type: in vivo, male New Zealand White rabbits
Settings: for Average / Conc. (ng/g) OD / Conc. (ng/g) OS / Conc. (ng/mL) OD / Conc. (ng/mL) OS: sodium salt; for Average Peak Concentration, Choroid / Average Peak Concentration, Cornea / Average Peak Concentration, Iris / Average Peak Concentration, Retina: solution
Protocol: To measure the concentration of Compound 1 in plasma and ocular tissues following topical ocular, subcutaneous, and intravitreal administration, New Zealand White rabbits were administered Compound 1, and plasma and ocular samples were collected at pre-determined time points. Compound 1 formulations were prepared fresh on each day of dosing.
Ocular tissue samples from both eyes of each animal were collected and weights were recorded. Plasma and ocular tissue sample concentrations of Compound 1 were determined by LC-MS/MS.
Animals were anesthetized for ocular (topical) and intravitreal dosing following the 12IA7 IACUC protocol. Each rabbit received a bolus dose of test formulation either via topical ocular administration 3 times daily on Days 1 and 2 (at 0, 6, and 12 hours), and once on Day 3 (at 0 hours) into both eyes; via intravitreal administration into both eyes once on Day 1 (at 0 hours); or via subcutaneous administration 2 times daily on Days 1 and 2 (at 0 and 8 hours) and once daily on Day 3 (at 0 hours). Doses were given within an approximately 1 hour window each day where applicable.
On Day 1, for intravitreal administration, or on Day 3, for topical ocular and subcutaneous administration, at the appropriate ocular tissue collection time points, animals were euthanized and both eyes were enucleated immediately. Following enucleation, each eye was rinsed with phosphate-buffered saline. Ocular tissue samples from both eyes of each animal were collected at predetermined time points and weights were recorded. All the samples were frozen immediately on dry ice, and stored at −60° C. to −80° C. pending bioanalysis.
An LC-MS/MS method was developed for the determination of Compound 1 in rabbit aqueous tissues (plasma, aqueous and vitreous humor) and solid ocular tissue samples. A pre-study standard curve was analyzed to determine the specificity, range, and lower limit of quantitation of the method. Plasma and tissue homogenate study samples were extracted and analyzed. All the samples were treated identically to the standards.
One eight-point standard curve was used in each analytical batch. To be accepted, each batch must have had at least five of eight standards with accuracy within ±20% of nominal, except at the lower limit of quantification (LLOQ), where ±25% was acceptable.

[1] = Choroid, 0.5 hr, subcutaneous 5 mg/kg/dose (Group 2)
[2] = Choroid, 1 hr, subcutaneous 5 mg/kg/dose (Group 2)
[3] = Choroid, 1 hr, topical ocular 1.2 mg/eye (Group 1)
[4] = Choroid, 2 hr, topical ocular 1.2 mg/eye (Group 1)
[5] = Choroid, 4 hr, subcutaneous 5 mg/kg/dose (Group 2)
[6] = Choroid, 4 hr, topical ocular 1.2 mg/eye (Group 1)
[7] = Cornea, 0.5 hr, subcutaneous 5 mg/kg/dose (Group 2)
[8] = Cornea, 0.5 hr, topical ocular 1.2 mg/eye (Group 1)
[9] = Cornea, 1 hr, subcutaneous 5 mg/kg/dose (Group 2)
[10] = Cornea, 1 hr, topical ocular 1.2 mg/eye (Group 1)
[11] = Cornea, 2 hr, subcutaneous 5 mg/kg/dose (Group 2)
[12] = Cornea, 4 hr, subcutaneous 5 mg/kg/dose (Group 2)
[13] = Cornea, 4 hr, topical ocular 1.2 mg/eye (Group 1)
[14] = Group 1: topical ocular 0.70 mg/kg/dose
[15] = Group 2: subcutaneous 5 mg/kg/dose
[16] = Group 4: intravitreal 1.55 mg/kg/dose
[17] = Iris, 0.5 hr, subcutaneous 5 mg/kg/dose (Group 2)
[18] = Iris, 0.5 hr, topical ocular 1.2 mg/eye (Group 1)
[19] = Iris, 1 hr, subcutaneous 5 mg/kg/dose (Group 2)
[20] = Iris, 4 hr, subcutaneous 5 mg/kg/dose (Group 2)
[21] = Iris, 4 hr, topical ocular 1.2 mg/eye (Group 1)
[22] = Retina, 0.5 hr, subcutaneous 5 mg/kg/dose (Group 2)
[23] = Retina, 0.5 hr, topical ocular 1.2 mg/eye (Group 1)

Average [1]: 266 ng/g
Conc. (ng/g) OD [1]: 264 ng/g and 282 ng/g
Conc. (ng/g) OS [1]: 282 ng/g and 235 ng/g
Conc. (ng/mL) OD [1]: 24.0 ng/mL and 25.6 ng/mL
Conc. (ng/mL) OS [1]: 25.6 ng/mL and 21.4 ng/mL
Average (Choroid, 0.5 hr, topical ocular 1.2 mg/eye (Group 1)): 57.7 ng/g
Average [2]: 200 ng/g
Conc. (ng/g) OD [2]: 320 ng/g and 211 ng/g
Conc. (ng/g) OS [2]: 144 ng/g and 125 ng/g
Conc. (ng/mL) OD [2]: 29.1 ng/mL and 19.2 ng/mL
Conc. (ng/mL) OS [2]: 13.1 ng/mL and 11.4 ng/mL
Average [3]: 32.2 ng/g
Conc. (ng/g) OD [3]: 61.2 ng/g and 31.8 ng/g
Conc. (ng/g) OS [3]: 16.5 ng/g and 19.5 ng/g
Conc. (ng/mL) OD [3]: 5.56 ng/mL and 2.89 ng/mL
Conc. (ng/mL) OS [3]: 1.50 ng/mL and 1.77 ng/mL
Average (Choroid, 2 hr, subcutaneous 5 mg/kg/dose (Group 2)): 68.8 ng/g
Average [4]: 59.2 ng/g
Conc. (ng/g) OS [4]: 43.9 ng/g and 64.5 ng/g
Conc. (ng/mL) OS [4]: 3.99 ng/mL and 5.86 ng/mL
Average [5]: 15.5 ng/g
Conc. (ng/g) OD [5]: 18.7 ng/g and 16.5 ng/g
Conc. (ng/g) OS [5]: 13.4 ng/g
Conc. (ng/mL) OD [5]: 1.70 ng/mL and 1.50 ng/mL
Conc. (ng/mL) OS [5]: 1.22 ng/mL
Average [6]: 165 ng/g
Conc. (ng/g) OD [6]: 27.8 ng/g and 52.1 ng/g
Conc. (ng/g) OS [6]: 81.1 ng/g
Conc. (ng/mL) OD [6]: 2.53 ng/mL and 4.74 ng/mL
Average [7]: 19.4 ng/g
Conc. (ng/g) OS [7]: 27.1 ng/g and 21.3 ng/g
Conc. (ng/mL) OS [7]: 2.46 ng/mL and 1.94 ng/mL
Average [8]: 1015 ng/g
Conc. (ng/g) OD [8]: 240 ng/g and 370 ng/g
Conc. (ng/g) OS [8]: 427 ng/g
Conc. (ng/mL) OD [8]: 21.8 ng/mL and 33.6 ng/mL
Average [9]: 31.1 ng/g
Conc. (ng/g) OD [9]: 26.1 ng/g and 23.4 ng/g
Conc. (ng/g) OS [9]: 25.3 ng/g
Conc. (ng/mL) OD [9]: 2.37 ng/mL and 2.13 ng/mL
Conc. (ng/mL) OS [9]: 4.52 ng/mL and 2.30 ng/mL
Average [10]: 548 ng/g
Conc. (ng/g) OS [10]: 482 ng/g and 532 ng/g
Conc. (ng/mL) OS [10]: 43.8 ng/mL and 48.4 ng/mL
Average [11]: 9.45 ng/g
Conc. (ng/g) OD [11]: 11.7 ng/g
Conc. (ng/g) OS [11]: 11.0 ng/g
Average (Cornea, 2 hr, topical ocular 1.2 mg/eye (Group 1)): 1073 ng/g
Average [12]: 10.1 ng/g
Conc. (ng/g) OD [12]: 8.27 ng/g and 9.60 ng/g
Conc. (ng/g) OS [12]: 8.62 ng/g and 13.9 ng/g
Conc. (ng/mL) OD [12]: 0.752 ng/mL and 0.873 ng/mL
Conc. (ng/mL) OS [12]: 0.784 ng/mL and 1.26 ng/mL
Average [13]: 534 ng/g
Conc. (ng/g) OD [13]: 493 ng/g and 362 ng/g
Conc. (ng/mL) OD [13]: 44.8 ng/mL and 32.9 ng/mL
Average Peak Concentration, Choroid [14]: 57.7 ng/g
Average Peak Concentration, Cornea [14]: 1015 ng/g
Average Peak Concentration, Iris [14]: 24.3 ng/g
Average Peak Concentration, Retina [14]: 25.6 ng/g
Average Peak Concentration, Choroid [15]: 266 ng/g
Average Peak Concentration, Cornea [15]: 19.4 ng/g
Average Peak Concentration, Iris [15]: 459 ng/g
Average Peak Concentration, Retina [15]: 40.5 ng/g
Average Peak Concentration, Choroid [16]: 947375 ng/g
Average Peak Concentration, Cornea [16]: 71445 ng/g
Average Peak Concentration, Iris [16]: 351725 ng/g
Average Peak Concentration, Retina [16]: 774400 ng/g
Average [17]: 459 ng/g
Conc. (ng/g) OD [17]: 305 ng/g and 454 ng/g
Conc. (ng/mL) OD [17]: 27.7 ng/mL and 41.3 ng/mL
Average [18]: 24.3 ng/g
Conc. (ng/g) OD [18]: 28.1 ng/g and 18.7 ng/g
Conc. (ng/g) OS [18]: 17.8 ng/g and 32.5 ng/g
Conc. (ng/mL) OD [18]: 2.55 ng/mL and 1.7 ng/mL
Conc. (ng/mL) OS [18]: 1.62 ng/mL and 2.95 ng/mL
Average [19]: 94.7 ng/g
Conc. (ng/g) OD [19]: 125 ng/g and 99.2 ng/g
Conc. (ng/g) OS [19]: 97.6 ng/g and 56.4 ng/g
Conc. (ng/mL) OD [19]: 11.4 ng/mL and 9.02 ng/mL
Conc. (ng/mL) OS [19]: 8.87 ng/mL and 5.13 ng/mL
Average (Iris, 1 hr, topical ocular 1.2 mg/eye (Group 1)): 55.2 ng/g
Average (Iris, 2 hr, subcutaneous 5 mg/kg/dose (Group 2)): 29.7 ng/g
Average (Iris, 2 hr, topical ocular 1.2 mg/eye (Group 1)): 51.9 ng/g
Average [20]: 30.4 ng/g
Conc. (ng/g) OD [20]: 33.8 ng/g
Conc. (ng/g) OS [20]: 34.1 ng/g
Conc. (ng/mL) OD [20]: 2.12 ng/mL and 3.07 ng/mL
Average [21]: 261 ng/g
Conc. (ng/g) OD [21]: 32.7 ng/g and 27.9 ng/g
Conc. (ng/g) OS [21]: 30.7 ng/g
Conc. (ng/mL) OD [21]: 2.97 ng/mL and 2.54 ng/mL
Average [22]: 40.5 ng/g
Conc. (ng/g) OD [22]: 30.5 ng/g and 34.9 ng/g
Conc. (ng/g) OS [22]: 48.0 ng/g and 48.7 ng/g
Conc. (ng/mL) OD [22]: 2.77 ng/mL and 3.17 ng/mL
Conc. (ng/mL) OS [22]: 4.36 ng/mL and 4.43 ng/mL
Average [23]: 25.6 ng/g
Conc. (ng/g) OS [23]: 33.7 ng/g and 33.1 ng/g
Conc. (ng/mL) OS [23]: 3.06 ng/mL and 3.01 ng/mL
SMILES: COC(=O)N[C@@H](Cc1ccccc1)C(=O)N[C@@H](Cc1ccc(NS(=O)(=O)O)cc1)c1csc(-c2cccs2)n1 [Compound 1 sodium salt]
